# Reference: patent publication US20230041197A1, “TREATMENT OF A DISEASE OF THE GASTROINTESTINAL TRACT WITH AN IMMUNOMODULATOR” (Progenity, Inc., priority 2018, published 2023)
# Where a name gives a salt, the structure may show the parent alone.
# Assays:
# [1] = Tacrolimus blood pharmacokinetics, oral vs intra-cecal ingestible device (Example 10); assay type: in vivo, Yorkshire-Cross farm swine
# Description: The primary objective of this study was to compare the tissue, plasma, rectal sample, and GI content pharmacokinetics of tacrolimus through oral versus intra-cecal ingestible device delivery in normal Yorkshire-Cross farm swine.
# No further randomization procedure was employed.
# Animals in Group 1 received an ingestible device containing 0.8 mL of vehicle solution (80% alcohol, 20% HCO-60). Animals in Group 2 received orally […] liquid formulation of tacrolimus at 4 mg/0.8 mL per animal (Prograf: 5 mg/mL). Animals in Group 3 received intra-cecally an ingestible device containing tacrolimus at 1 mg in 0.8 mL per ingestible device. Animals in Group 4 received intra-cecally an ingestible device containing tacrolimus at 2 mg in 0.8 mL per ingestible device. Animals in Group 5 received intra-cecally an ingestible device containing tacrolimus at 4 mg in 0.8 mL per ingestible device. To control for potential confounding effects of the surgery, all groups fast on Day −11 at least 24 hr before being subjected to anesthesia followed by surgical placements of a cecal port by a veterinary surgeon at Day −10. All animals were fasted for at least 12 hr prior to dosing on Day 1. Animals were dosed via either intra-cecal dosing (IC) or oral dosing (PO) at Day 1 (between 6-8 p.m.). All animals resumed feeding at approximately 4 hours after dose (11-12 p.m. after dosing).
# Approximately 200-400 mg of rectal content were collected, if available, with a fecal swab (Copan Diagnostics Nylon Flocked Dry Swabs, 502CS01). The fecal swab was pre-weighed and weighed after collection in the collection tube (Sterile Tube and Cap No Media, PFPM913S), and the sample weight was recorded. The fecal swab was broken via the breakpoint, and was stored in the collection tube, and immediately frozen at −70° C. […] Immediately following euthanasia, tissue was collected.
# Group 2 animals were administered a single oral dose of tacrolimus at 4 mg/0.8 mL (0.08-mg/kg) (in the vehicle solution) on Day 1. Plasma, rectal content sample, tissue collection, GI content collection and related procedures/storage/shipments was the same as those employed in Group 1.
# (§1) Group 3 animals were administered a single intra-cecal ingestible device containing tacrolimus at 1-mg/0.8 mL (0.02 mg/kg) (in the vehicle solution) on Day 1 by a veterinary surgeon. Plasma, rectal content sample, tissue collection, GI content collection and related procedures/storage/shipments was the same as those employed in Group 1. All samples were analyzed for tacrolimus.
# Group 4 animals were administered a single intra-cecal ingestible device of tacrolimus at 2 mg/0.8 mL (0.04 mg/kg) (in sterile vehicle solution) on Day 1 by a veterinary surgeon.
# as §1, with “Group 5” for “Group 3”, “animals are” for “animals were”, “at 4 mg/0.8” for “at 1-mg/0.8”, “mL (0.08” for “mL (0.02”, “procedures/storage/shipments were” for “procedures/storage/shipments was”
# [2] = Tacrolimus in GI tissue, luminal content and rectal content, oral vs intra-cecal device (Example 10); assay type: in vivo, Yorkshire-Cross farm swine
# Description: Animals in Group 1 (Vehicle Control) were administered a single intra-cecal ingestible device containing 0.8 mL Vehicle solution (80% alcohol, 20% castor oil (HCO-60) on Day 1. On Day −10 the animals were anesthetized, and a veterinary surgeon surgically placed an intra-cecal port in each animal. On Day 1, each animal was placed into a sling then a single intra-cecal ingestible device containing 0.8 mL vehicle solution (80% alcohol, 20% castor oil (HCO-60)) is introduced by the veterinary surgeon into the cecum via the cecal port in each animal. Following ingestible device placement, the animals were removed from the slings and placed back into their pens with water. […]
# Approximately 200-400 mg of rectal content were collected, if available, with a fecal swab (Copan Diagnostics Nylon Flocked Dry Swabs, 502CS01). The fecal swab was pre-weighed and weighed after collection in the collection tube (Sterile Tube and Cap No Media, PFPM913S), and the sample weight was recorded. […]
# For tissue necropsy, small intestine fluid and cecal fluid were collected separately from all the animals into two separate square plastic bottles, and stored at −20° C. The length and diameter of the cecum and the colon was measured from one animal in each group and recorded for reference. […] All samples were weighed, and the tissue sample weights were recorded. […]
# [3] = parameters: species or system Yorkshire-Cross farm swine; details: in vivo
# Excerpt: Tables 32 and 33 provide the tissue and plasma ratios of the animals in Groups 2-5.
# [4] = test system: IL-6, GM-CSF, IL-15, IL-2, IL-12, IL-13, TNF-α, INF-γ
# [5] = female, Yorkshire-Cross, pig, in vivo, 0.04 mg/kg
SMILES,"Cmax ([1]; PO, 0.09 mg/kg) [ng/mL]","concentration at 12 h ([1]; female, Yorkshire-Cross, pig, in vivo, 0.02 mg/kg) [ng/mL]","Tmax [1, 5] [h]","concentration at 12 h [1, 5] [ng/mL]","concentration at 12 h ([1]; female, Yorkshire-Cross, pig, in vivo, 0.09 mg/kg) [ng/mL]","tissue (spiral and transverse colon) and luminal content (spiral, transverse, and distal colon) concentrations ([2]; IC capsule high and moderate dose vs PO)","mean concentration in cecum tissue and proximate colon tissue ([2]; intra-cecal vs oral, FIG. 76)","mean concentration in spiral colon lumen, transverse colon lumen and distal colon lumen [3]",mean concentration in spiral colon tissue and transverse colon tissue [3],GM-CSF levels in plasma or colon tissue ([4]; IC vs PO treatment groups),"IL-6 expression in plasma ([4]; PO or IC, 1 h and 3 h post-treatment)","inhibition of IL-6 expression in colon tissue ([4]; all IC treated groups and high dose PO group (45 mg/kg), FIG. 112B)","IL-6 inhibition in colon tissue ([4]; low dose PO group (15 mg/kg), by 12 h post-dose)"
C=CC[C@@H]1/C=C(\C)C[C@H](C)C[C@H](OC)[C@H]2O[C@@](O)(C(=O)C(=O)N3CCCC[C@H]3C(=O)O[C@H](/C(C)=C/[C@@H]3CC[C@@H](O)[C@H](OC)C3)[C@H](C)[C@@H](O)CC1=O)[C@H](C)C[C@@H]2OC [tacrolimus],3.531 ± 3.84,0.746 ± 0.038,1,1.96 ± 0.491,4.35 ± 0.516,Significantly higher,higher,statistically higher,statistically higher,–,–,–,–
C[C@@H]1CCN(C(=O)CC#N)C[C@@H]1N(C)c1ncnc2[nH]ccc12 [tofacitinib citrate],–,–,–,–,–,–,–,–,–,nor was there a significant difference,inhibition,sustained through 24 h post-dose,Recovery from IL-6 inhibition
